Measurements reported in patent US7675626B2, “Method of detecting drug resistant microorganisms by surface plasmon resonance system” (priority 2006, dated 2010).
Several values for one entry are separate records, joined by “and”; a condition that tells them apart may be missing. Equal entries are not always repeated.

Key:
[1] = test system: ampicillin susceptible strain (JM109); experiment: SPR angle shift, ampicillin sensitivity test (susceptible strain); type: cell-based, E. coli; settings: for susceptible surface plasmon resonance angle shift/resistant surface plasmon resonance angle shift: ratio susceptible/resistant strain
Description: (§1) On setting up the surface plasmon resonance, a He—Ne laser (wavelength=632.8 nm) was used as the light source. The laser beam passed through the polarizer to block […], and only p-polarization component could excite surface plasmon. The transmitted p-polarization beam was split into two beams via beam splitter (BS), one beam was detected by photodiode as reference light, and the other beam injected into prism at specific range of angles to decide surface plasmon angle. The reflected light was detected via the photodiode in the opposite side of prism as signal light. Surface plasmon was excited on Au metal film deposited on flat glass surface which attached on prism via matching oil. The current signal detected by photodiode was expanded via amplifier and transformed into voltage signal via 16-bit A/D converter (Adventech PCI-1716) The Y-axial represented the ratio of reference light and signal light, X-axial represented the incident angle of interface between prism and sample. Incident angle was controlled by controller which motor motorized stage with two arms. When surface plasmon resonance angle was detected, the energy of injected light was absorbed and surface plasmon resonance was achieved. This experimental setup was build by National Cheng-Kung University, department of Engineering Science, Adaptic Photonic Lab.
(§2) The bacteria used herein were JM109 strain, which was recA1 mutation that helped ensure insert stability. EndA1 mutation improved the quality of the plasmid miniprep DNA. HsdR17 mutation prevented the cleavage of cloned DNA by an endogenous endonuclease system.
(§3) Penicillin was referred to β-lactam drugs because of the importance of the β-lactam ring. An intact ting structure was essential for antibacterial activity. The cleavage of the ring by penicillinase (β-lactamase) inactivated the drug. The antibiotic bacteria strain used herein was transformed by ampicillin resistant plasmid that translated β-lactamase to cleave the ring of ampicillin. The bacteria was picked out by loop and planted in 5 ml LB broth over night, then transferred into 100 ml LB and incubated for two hours.
(§4) Diluted Poly-L-Lysine solution with deionized water prior to coating slides. The flat glass surface deposited with Au metal film was immersed in poly-L-lysine solution (concentration is […]) for at least 24 hours to interact with Au metal film, cells can be immobilized on biochips after incubation.
(§5) The sterilized DI water was injected into the flow chamber for 30 min to stabilize the system when biochip coated with poly-L-lysine was assembled. After balancing, the incubated LA broth was injected into the flow chamber for 210 minutes to cover the AU metal film. Subsequently, antibiotic solution was injected, and the surface plasmon resonance curve was observed on the computer.
(§6) Surface plasmon resonance system measured SPR angle continuously, and compared SPR curve of antibiotic susceptible and antibiotic resistant strain under the same condition. The SPR curve of antibiotic resistant strain was depicted in FIG. 2, and antibiotic susceptible strain SPR curve was depicted in FIG. 3. Experimental data represented that after 30 minutes of balance of the SPR system, the injection of bacteria LB broth increased the SPR angle. After 210 minutes, the extra bacteria were washed with deionized water and presented the decrease of SPR angle, then balanced for 10-20 minutes. Antibiotic solution was injected after the balance curve. […]

[2] = test system: ampicillin resistant strain (JM109 transformed by ampicillin resistant plasmid); experiment: SPR angle shift, ampicillin resistance test (resistant strain); type: cell-based, E. coli
Description: as §1, §2, §3, §4, §5, §6

CC1(C)S[C@@H]2[C@H](NC(=O)[C@H](N)c3ccccc3)C(=O)N2[C@H]1C(=O)O [ampicillin]
Ampicillin susceptible surface plasmon resonance angle shift ([1]; Average of 4 repeats): −0.0659
susceptible surface plasmon resonance angle shift/resistant surface plasmon resonance angle shift ([1]; Average of 4 repeats): 2.377
susceptible surface plasmon resonance angle shift/resistant surface plasmon resonance angle shift ([1]; single repeat experiments): 1.9834 and 2.6208 and 3.2312 and 1.6729
drop of SPR angle ([1]; standard kinetic plot (FIG. 3), after injection of antibiotics): −0.06876 degree
drop of SPR angle ([1]; thirty minutes after antibiotic treatment (FIG. 5)): −0.01702 degree
Ampicillin resistant surface plasmon resonance angle shift ([2]; Average of 4 repeats): −0.02935
drop of SPR angle ([2]; standard kinetic plot (FIG. 2), after injection of antibiotics): −0.02128 degree
drop of SPR angle of resistant strain compared to susceptible strain ([2]; standard kinetic plot (FIGS. 2, 3)): approximately ⅓
drop of SPR angle of resistant strain compared to susceptible strain ([2]; thirty minutes after antibiotic treatment): approximately ⅕
drop of SPR angle ([2]; thirty minutes after antibiotic treatment (FIG. 4)): −0.00332 degree
